From paper PMC9339481 (Nature chemical biology, 2022)
Read-outs that look alike come from different tables or passages of the source.

Tests used:
[1] = test system: SW620 cells, HDAC6 substrate alpha-tubulin; assay: Western blot against acetylated alpha-Tubulin; type: cell-based, human; conditions: 6 h, vs DMSO control
[2] = biological target: T1, recombinant MBLAC2 (Homo sapiens, UniProt Q68D91); assay: Palmitoyl-CoA hydrolysis assay; type: biochemical; conditions: for EC50: assay threshold 10 nM
T1 sequence (Q68D91 1-279): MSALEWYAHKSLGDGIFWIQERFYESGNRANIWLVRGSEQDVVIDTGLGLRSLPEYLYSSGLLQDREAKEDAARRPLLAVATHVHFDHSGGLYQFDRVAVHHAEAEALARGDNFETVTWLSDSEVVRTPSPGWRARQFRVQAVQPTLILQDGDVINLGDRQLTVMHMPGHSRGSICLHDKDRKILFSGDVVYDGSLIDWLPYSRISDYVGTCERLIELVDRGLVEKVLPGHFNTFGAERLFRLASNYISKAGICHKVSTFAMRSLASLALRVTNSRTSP

[3] = test system: HDACs or other metalloproteins; assay: chemoproteomic competition pulldown assay, whole target panel; conditions: for affinities (Kd^app) in chemoproteomic assay: doses up to 3000 μM
[4] = test system: CoREST complex subunits RCOR3 and RCOR1; assay: HDAC complex selectivity from competition pulldown; type: binding, human
[5] = test system: HDAC1 and HDAC2; assay: binding kinetics pulldown experiment; parameters: species or system human; conditions: 4 °C, 30 μM
[6] = test system: class IIa HDACs; assay: chemoproteomic competition pulldown assay, class IIa HDACs; type: binding, human
[7] = test system: HDAC6; conditions: reported values; cited from earlier work
[8] = biological target: HDACs 1–3; assay: chemoproteomic competition pulldown assay, HDACs 1–3; type: binding, human
[9] = biological target: T2, HDAC8 (Homo sapiens, UniProt Q9BY41); assay: HDAC-Glo enzyme activity assay; type: biochemical
T2 sequence (Q9BY41 1-377): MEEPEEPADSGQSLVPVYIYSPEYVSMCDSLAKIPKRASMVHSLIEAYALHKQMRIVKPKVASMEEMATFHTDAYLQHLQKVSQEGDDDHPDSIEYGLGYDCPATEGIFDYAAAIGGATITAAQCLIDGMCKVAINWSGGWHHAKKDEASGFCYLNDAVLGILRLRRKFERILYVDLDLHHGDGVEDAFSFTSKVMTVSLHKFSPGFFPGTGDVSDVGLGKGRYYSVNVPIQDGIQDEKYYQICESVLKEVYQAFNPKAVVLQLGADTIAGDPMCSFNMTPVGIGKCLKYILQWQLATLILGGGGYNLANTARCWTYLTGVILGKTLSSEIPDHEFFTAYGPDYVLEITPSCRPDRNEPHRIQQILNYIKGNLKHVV

[10] = EC50 of MBLAC2 hydrolase activity inhibition

O=C(NO)c1cnc(NC2(c3ccccc3)CC2)nc1 [ACY-738]
acetylation of alpha-Tubulin Lys40 [1]: significant overacetylation

CC(C)[C@H](C(=O)Nc1ccc(C(=O)NO)cc1)c1ccccc1 [AR-42]
EC50 ([2]; read-out: EC50 of MBLAC2 hydrolase activity inhibition): < 0.01 µM

CN(C)Cc1c(C(=O)NCCOc2ccc(C(=O)NO)cc2)oc2ccccc12 [Abexinostat]
EC50 [2, 10]: < 0.01 µM

CCCCOc1ccc(CC(=O)NO)cc1 [Bufexamac]
HDAC binding in chemoproteomic assay [3]: did not bind HDACs

O=C(/C=C/c1ccc(CN(CCO)CCc2c[nH]c3ccccc23)cc1)NO [Dacinostat]
lower EC50 value of RCOR3 compared to RCOR1 and other CoREST members [4]: > 10 fold

Cc1cc(Cl)ccc1OCCCC(=O)NO [Droxinostat]
HDAC binding in chemoproteomic assay [3]: did not bind HDACs

Nc1ccccc1NC(=O)c1ccc(CNC(=O)OCc2cccnc2)cc1 [Entinostat]
time until target HDACs maximally competed [5]: more than 2 h

Cc1cc(C)cc(C(=O)NOCCCCCC(=O)NO)c1 [LMK235]
class IIa target engagement [6]: no class IIa target engagement at all

CN(C)c1ccc(C(=O)NCCCCCCC(=O)NO)cc1 [M344]
lower EC50 value of RCOR3 compared to RCOR1 and other CoREST members [4]: > 10 fold

Cn1c(/C=C/C(=O)NO)ccc1/C=C/C(=O)c1cccc(F)c1 [MC1568]
class IIa target engagement [6]: no class IIa target engagement at all

CCCCN(Cc1ccc(C(=O)NO)cc1)C(=O)Nc1ccccc1 [Nexturastat A]
pEC50 HDAC6 [7]: 8.3

O=C(O)CCCc1ccccc1 [Phenylbutanoic Acid]
affinities (Kd^app) in chemoproteomic assay [3]: three-digit micromolar

CCCCc1nc2cc(/C=C/C(=O)NO)ccc2n1CCN(CC)CC [Pracinostat]
EC50 [2, 10]: < 0.01 µM

O=C(CCCCCCNC(=O)c1cnc(N(c2ccccc2)c2ccccc2)nc1)NO [Ricolinostat]
pKd^app range for HDACs 1–3 [8]: 4.9–6.0

C/C=C1\NC(=O)[C@H]2CSSCC/C=C/[C@H](CC(=O)N[C@H](C(C)C)C(=O)N2)OC(=O)[C@H](C(C)C)NC1=O [Romidepsin]
lower EC50 value of RCOR3 compared to RCOR1 and other CoREST members [4]: > 10 fold

Nc1cc(F)ccc1NC(=O)c1ccc(CNC(=O)/C=C/c2cccnc2)cc1 [Tucidinostat]
MBLAC2 enzyme activity, single dose screen ([2]; 300 nM drug, 30 nM MBLAC2): little if any effect on enzyme activity | effect on MBLAC2 activity ([2]; at a 1,000-fold higher concentration): did not affect MBLAC2 activity

CCCC(CCC)C(=O)O [Valproic Acid]
affinities (Kd^app) in chemoproteomic assay [3]: three-digit micromolar

O=C(CCCCCCC(=O)Nc1ccccc1)NO [Vorinostat]
activity against HDAC8 [9]: very low activity
